# Article PMC12261219, “Comparative Evaluation of Thiol- and Amine-Conjugating Moieties for Endogenous Albumin Binding after Intravenous Administration” (ACS Pharmacology & Translational Science, 2025)
# “And” between values parts separate entries of the source, which are not always exact repeats. Identical values can stand only once.
# Tests used:
# [1] = Serum pharmacokinetics (platinum, ICP-MS) in CT26-bearing Balb/c mice; conditions: serum platinum; for Cmax: measured at tmax=0.08 h; for Cmax / CL: single i.v. dose 4.42 mg/kg Pt; for Percentage of AUCPt_0-∞ extrapolated from tlast to infinity: tlast=24 h; for Half-life: terminal half-life; for Half-life / Vz: i.v.; for CL: total body clearance; for Vz: volume of distribution based on the terminal phase
# Method: CT26 cells (5 × 10^5 in 50 μL serum-free medium) were injected subcutaneously (s.c.) into the right flank of male Balb/c mice. […] The blood, tumor and organ collection followed the study design in Figure A. Briefly, to assess serum platinum levels, blood was collected after 5 min, 30 min, 5 h and 24 h (2 mice per time point) via the facial vein. The serum was separated by centrifugation (two times 10 min at 900 g) after 10 min clotting at room temperature. […] All collected samples were stored at −20 °C and further processed for platinum measurements via ICP-MS as follows: HNO3 (67–69%, suprapur for trace metal analysis, NORMATOM; Distributor: VWR international, Austria) and conc. H2O2 suprapur (Merck, 30%) were used without further purification. Digestion of tissue (approximately 15–30 mg gravimetrically weighted) was performed with 2 mL of approximately 20% HNO3 and 100 μL H2O2 using an open vessel graphite digestion system (coated graphite heating plate, coated sample holder-top for 25 mL vials, PFA vials and PFA lids; Labter, ODLAB; Distributor: AHF Analysentechnik AG; Germany). Digested samples were diluted in Milli-Q water (18.2 MΩ cm, Milli-Q Advantage, Darmstadt, Germany). For the ICP-MS analysis, platinum and rhenium standards were derived from CPI International (Amsterdam, The Netherlands). The total platinum content was determined with a quadrupole-based Agilent 7800 ICP-MS instrument (Agilent Technologies, Tokyo, Japan) equipped with the Agilent SPS 4 autosampler (Agilent Technologies, Tokyo, Japan) and a MicroMist nebulizer at a sample uptake rate of approximately 0.2 mL/min. An RF power of 1550 W was used as well as nickel cones. Argon was used as plasma gas (15 L/min) and as carrier gas (∼1.1 L/min). The dwell time was set to 0.1 s and the measurements were performed in 6 replicates with 100 sweeps. Rhenium served as internal standard for platinum. The Agilent MassHunter software package (Workstation Software, version C.01.04) was used for data processing.
# As platinum was measured in serum, equimolar administered doses were adjusted to correspond to platinum (0.0227 mmol, 4.42 mg platinum). The area under the “concentration”–time curve (AUC) was determined from time 0 to infinity (AUCPt_0‑∞) and from time 0 to 24 h (AUCPt_0–24, based on the last observed sample at 24 h; linear-log trapezoidal calculation method). The terminal slope (λ z ) was determined based on the last two (out of four) measurements (times 5 h and 24 h).
# IgG = experiment: SEC-ICP-MS with single serum protein solution: IgG; format: binding, human; conditions: 200 μM IgG, 100 μM compound, 100 mM PB pH 7.4, 37 °C, 2 h
# Method: (§1) All investigated proteins were purchased from commercial suppliers: Albumin (Sigma-Aldrich, A8763), IgG (Athens Research, 16–16–090707), α1-antitrypsin (Sigma-Aldrich, A6150) and apotransferrin (Sigma-Aldrich, T1147). […] The compound stocks were diluted into the protein solution to reach a final concentration of 100 μM (27 μL protein and 3 μL compound). The samples were incubated at 37 °C for 2 h and analyzed as described for the SEC-ICP-MS studies (Tables S6 and S7).
# [2] = Hydrolytic stability in buffer (HPLC); format: physicochemical; conditions: for Intact compound after 25 h: 0.5 mM
# Method: The samples were incubated at 20 °C and measured over 25 h. Reversed phase high-performance liquid chromatography (RP-HPLC) runs were performed using a Waters Acquity UPLC BEH C18 column (130 Å, 1.7 μm, 3 mm × 50 mm) on a Dionex Thermo Scientific UltiMate 3000 HPLC system, equipped with a HPG-3400RS binary pump and a DAD-3000 UV–vis detector. Chromatograms were evaluated at a wavelength of 220 nm. Milli-Q water (mobile phase A) and acetonitrile (mobile phase B), both containing 0.1% TFA, were used as eluents. The flow rate was consistent at 0.6 mL/min for all measurements using the following gradient: 0–0.5 min A 95:5 B, 0.5–5.5 min linear gradient to A 5:95 B, 5.5–6.5 min A 5:95 B, 6.5–9.2 min A 95:5 B. The same conditions were applied for stability measurements in 100 mM PB at pH 5.5 and 6.5 as well as in 20 mM HEPES and MOPS at pH 7.4. RP-HPLC-MS analyses of the same samples after the stability measurements were conducted on a Waters Acquity UPLC BEH C18 column (130 Å, 1.7 μm, 3 mm × 50 mm) on an Agilent 1260 Infinity II system equipped with a Flexible pump, a 1260 VWD UV–vis detector and the LC–MSD system. Chromatograms were evaluated at a wavelength of 220 nm. Milli-Q water (mobile phase A) and acetonitrile (mobile phase B), both containing 0.1% formic acid, were used as eluents. The flow rate was consistent at 0.6 mL/min for all measurements using the following gradient: 0–0.5 min A 95:5 B, 0.5–6.0 min linear gradient to A 5:95 B, 6.0–7.0 min A 5:95 B, 7.0–7.1 min linear gradient to A 95:5 B, 7.1–8.0 min A 95:5 B.
# albumin (mouse serum) = target: T1, albumin (mouse serum) (Mus musculus, UniProt P07724); experiment: SEC-ICP-MS albumin binding in mouse serum; format: in vitro ADME; conditions: for Pt195 in HMWF (albumin-bound) / Pt195 in LMWF: 100 µM, 37 °C
# T1 construct: The serum was separated by centrifugation (two times 10 min at 900 g) after 10–20 min clotting at room temperature; from tissue; host or cells: serum of Balb/c mice
# T1 sequence (P07724 25-608): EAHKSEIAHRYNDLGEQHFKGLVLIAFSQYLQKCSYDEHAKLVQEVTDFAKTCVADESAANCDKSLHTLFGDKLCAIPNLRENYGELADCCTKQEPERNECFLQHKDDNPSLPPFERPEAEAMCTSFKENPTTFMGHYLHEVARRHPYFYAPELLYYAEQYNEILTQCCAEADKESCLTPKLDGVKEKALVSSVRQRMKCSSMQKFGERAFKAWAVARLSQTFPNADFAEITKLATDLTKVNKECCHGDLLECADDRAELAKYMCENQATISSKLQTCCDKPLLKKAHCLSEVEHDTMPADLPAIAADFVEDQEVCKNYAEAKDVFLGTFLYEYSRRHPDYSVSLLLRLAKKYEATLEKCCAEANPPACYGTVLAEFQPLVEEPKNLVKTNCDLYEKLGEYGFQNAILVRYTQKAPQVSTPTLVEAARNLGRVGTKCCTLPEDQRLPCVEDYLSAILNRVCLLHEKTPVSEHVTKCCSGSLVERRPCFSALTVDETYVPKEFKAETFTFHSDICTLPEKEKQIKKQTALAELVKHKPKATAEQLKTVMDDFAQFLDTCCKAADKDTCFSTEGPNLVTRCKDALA
# Method: Blood of Bab/c mice was collected under anesthesia via heart puncture. […] Human serum was purchased from Sigma-Aldrich. In order to guarantee a stable pH, all sera were buffered with 150 mM phosphate to pH 7.4 by dissolving the necessary amounts of Na2HPO4 and NaH2PO4 directly in the serum. […] The samples were then incubated in the autosampler at 37 °C and analyzed every hour for 4 or 5 h and after 24 h. Between each sample a pure water blank was measured. For measurements with 10 min intervals the same procedure was followed, but the blank measurements were omitted. For SEC-ICP-MS measurements an Agilent 1260 Infinity system coupled to an Agilent 7800 ICP-HRMS equipped with a dynamic reaction cell was used. Oxygen (purity 5.5, Messer Austria GmbH, Gumpoldskirchen, Austria) was used as reaction gas.
# apotransferrin = target: T2, apotransferrin (Homo sapiens, UniProt P02787); experiment: SEC-ICP-MS with single serum protein solution: apotransferrin; format: binding; conditions: 200 μM apotransferrin, 100 μM compound, 100 mM PB pH 7.4, 37 °C, 2 h
# T2 construct: purchased Sigma-Aldrich T1147
# T2 sequence (P02787 20-698): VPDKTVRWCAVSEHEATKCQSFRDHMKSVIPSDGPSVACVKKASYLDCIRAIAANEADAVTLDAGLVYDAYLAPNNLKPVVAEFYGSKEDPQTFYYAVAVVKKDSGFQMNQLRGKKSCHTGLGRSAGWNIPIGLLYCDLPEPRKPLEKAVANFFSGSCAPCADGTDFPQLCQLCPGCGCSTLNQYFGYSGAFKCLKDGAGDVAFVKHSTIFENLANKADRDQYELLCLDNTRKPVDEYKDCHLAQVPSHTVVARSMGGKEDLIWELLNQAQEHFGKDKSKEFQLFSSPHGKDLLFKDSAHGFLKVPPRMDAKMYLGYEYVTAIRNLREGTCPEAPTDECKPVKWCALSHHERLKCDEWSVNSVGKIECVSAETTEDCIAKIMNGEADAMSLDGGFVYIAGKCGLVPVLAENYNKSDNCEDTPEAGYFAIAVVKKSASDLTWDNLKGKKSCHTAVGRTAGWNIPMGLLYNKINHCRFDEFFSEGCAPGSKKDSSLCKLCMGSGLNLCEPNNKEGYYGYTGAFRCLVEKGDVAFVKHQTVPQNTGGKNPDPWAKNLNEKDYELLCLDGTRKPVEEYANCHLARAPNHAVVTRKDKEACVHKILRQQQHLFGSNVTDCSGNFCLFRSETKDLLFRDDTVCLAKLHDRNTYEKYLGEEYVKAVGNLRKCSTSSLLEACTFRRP
# Method: as §1
# albumin = target: T3, albumin (Homo sapiens, UniProt P02768); experiment: SEC-ICP-MS with single serum protein solution: albumin; format: binding; conditions: 200 μM albumin, 100 μM compound, 100 mM PB pH 7.4, 37 °C, 2 h
# T3 construct: purchased Sigma-Aldrich A8763
# T3 sequence (P02768 25-609): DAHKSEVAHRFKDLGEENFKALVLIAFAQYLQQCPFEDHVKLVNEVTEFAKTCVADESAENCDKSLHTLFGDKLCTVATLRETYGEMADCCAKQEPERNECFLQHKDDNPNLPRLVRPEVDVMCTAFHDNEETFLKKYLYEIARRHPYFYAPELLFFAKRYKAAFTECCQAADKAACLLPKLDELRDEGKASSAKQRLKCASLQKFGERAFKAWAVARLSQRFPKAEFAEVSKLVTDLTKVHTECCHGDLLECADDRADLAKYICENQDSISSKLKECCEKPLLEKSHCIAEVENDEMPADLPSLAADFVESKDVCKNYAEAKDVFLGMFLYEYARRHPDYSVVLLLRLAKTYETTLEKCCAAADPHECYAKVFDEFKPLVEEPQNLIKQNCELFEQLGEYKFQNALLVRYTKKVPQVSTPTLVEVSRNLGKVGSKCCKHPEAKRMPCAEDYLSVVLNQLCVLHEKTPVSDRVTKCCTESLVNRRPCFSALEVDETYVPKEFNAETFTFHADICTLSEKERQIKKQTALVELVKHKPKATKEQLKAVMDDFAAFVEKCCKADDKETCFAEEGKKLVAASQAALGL
# Method: as §1
# α1-antitrypsin = target: T4, α1-antitrypsin (Homo sapiens, UniProt P01009); experiment: SEC-ICP-MS with single serum protein solution: α1-antitrypsin; format: binding; conditions: 200 μM α1-antitrypsin, 100 μM compound, 100 mM PB pH 7.4, 37 °C, 2 h
# T4 construct: purchased Sigma-Aldrich A6150
# T4 sequence (P01009 25-418): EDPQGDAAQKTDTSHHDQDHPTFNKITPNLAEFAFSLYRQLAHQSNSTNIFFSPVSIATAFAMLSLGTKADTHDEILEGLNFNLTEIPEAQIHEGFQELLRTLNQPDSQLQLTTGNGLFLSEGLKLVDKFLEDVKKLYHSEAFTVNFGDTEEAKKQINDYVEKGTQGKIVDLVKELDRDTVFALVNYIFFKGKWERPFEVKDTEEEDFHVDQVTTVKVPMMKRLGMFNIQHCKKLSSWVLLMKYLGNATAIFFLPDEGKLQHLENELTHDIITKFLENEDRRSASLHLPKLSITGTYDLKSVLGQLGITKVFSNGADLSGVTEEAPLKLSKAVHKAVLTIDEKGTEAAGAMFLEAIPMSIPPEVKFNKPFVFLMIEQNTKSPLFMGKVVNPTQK
# Method: as §1
# [3] = Reduction with ascorbic acid, release of oxaliplatin (HPLC); format: physicochemical; conditions: 0.5 mM, 150 mM PB, pH 7.4, 20 °C, 30 eq. ascorbic acid
# Method: The samples were incubated at 20 °C and measured over 25 h. […] RP-HPLC runs were performed using a Waters Acquity UPLC HSS T3 column (100 Å, 1.8 μm, 3.0 mm × 50 mm) on a Dionex Thermo Scientific UltiMate 3000 HPLC system, equipped with a HPG-3400RS binary pump and a DAD-3000RS UV–vis detector. Chromatograms were evaluated at a wavelength of 230 nm. Milli-Q water (mobile phase A) and acetonitrile (mobile phase B), both containing 0.1% TFA, were used as eluents. The flow rate was consistent at 0.6 mL/min for all measurements using the following gradient: 0–0.5 min A 99:1 B, 0.5–5.5 min linear gradient to A 1:99 B, 5.5–6.5 min A 1:99 B, 6.5–9.2 min A 99:1 B.
# [4] = pH 7.4, 10 min intervals, 0 min
# [5] = pH 7.4, 10 min intervals, 10 min
# [6] = pH 7.4, 10 min intervals, 20 min
# [7] = pH 7.4, 10 min intervals, 30 min
# [8] = pH 7.4, 10 min intervals, 40 min
# [9] = pH 7.4, 10 min intervals, 50 min
# [10] = pH 7.4, 10 min intervals, 60 min
smiles,measurement,setting,value
"CC(=O)[O][Pt-2]12([O]C(=O)NCCOCCOCCOCCOCCN3C(=O)C=CC3=O)([NH2+][C@@H]3CCCC[C@H]3[NH2+]1)[O]C(=O)C(=O)[O]2 [Mal-Ox-OAc, (OC-6–34)-Acetato[(1R,2R)-1,2-cyclohexane-1,2-diamino][ (14-(2,5-dioxo-2,5-dihydro-1H-pyrrol-1-yl)-3,6,9,12-tetraoxatetradecyl)-carbamato]-oxalato platinum(IV)]",Cmax,[1],35.6 mg/kg
same,Percentage of AUCPt_0-∞ extrapolated from tlast to infinity,[1],27.7%
same,Half-life,[1],12.2 h
same,CL,[1],0.00892 kg/h/kg
same,Vz,[1],0.157 kg/kg
same,Platinum in the HMWF (protein-bound),IgG,less than 20%
same,Intact compound after 25 h,"[2]; 20 mM HEPES, pH 7.4, 20 °C",56% and ~60%
same,Intact compound after 25 h,"[2]; 20 mM MOPS, pH 7.4, 20 °C",58% and ~60%
same,Intact compound after 25 h,"[2]; 100 mM PB, pH 5.5, 20 °C",96%
same,Intact compound after 25 h,"[2]; 100 mM PB, pH 6.5, 20 °C",80%
same,Intact compound after 25 h,"[2]; 100 mM PB, pH 7.4, 20 °C",23%
same,Pt195 in HMWF (albumin-bound),albumin (mouse serum); [4],36%
same,Pt195 in LMWF,albumin (mouse serum); [4],64%
same,Pt195 in HMWF (albumin-bound),albumin (mouse serum); [5],58% and ~60%
same,Pt195 in LMWF,albumin (mouse serum); [5],42%
same,Pt195 in HMWF (albumin-bound),albumin (mouse serum); [6],68%
same,Pt195 in LMWF,albumin (mouse serum); [6],32%
same,Pt195 in HMWF (albumin-bound),albumin (mouse serum); [7],74%
same,Pt195 in LMWF,albumin (mouse serum); [7],26%
same,Pt195 in HMWF (albumin-bound),albumin (mouse serum); [8],78%
same,Pt195 in LMWF,albumin (mouse serum); [8],22%
same,Pt195 in HMWF (albumin-bound),albumin (mouse serum); [9],79%
same,Pt195 in LMWF,albumin (mouse serum); [9],21%
same,Pt195 in HMWF (albumin-bound),albumin (mouse serum); [10],80%
same,Pt195 in LMWF,albumin (mouse serum); [10],20%
same,Pt195 in LMWF,"albumin (mouse serum); pH 7.4, 1 h intervals, 0 h",66%
same,Pt195 in HMWF (albumin-bound),"albumin (mouse serum); pH 7.4, 1 h intervals, 1 h",75%
same,Pt195 in LMWF,"albumin (mouse serum); pH 7.4, 1 h intervals, 1 h",25%
same,Pt195 in HMWF (albumin-bound),"albumin (mouse serum); pH 7.4, 1 h intervals, 2 h",74%
same,Pt195 in LMWF,"albumin (mouse serum); pH 7.4, 1 h intervals, 2 h",26%
same,Pt195 in HMWF (albumin-bound),"albumin (mouse serum); pH 7.4, 1 h intervals, 3 h",74%
same,Pt195 in LMWF,"albumin (mouse serum); pH 7.4, 1 h intervals, 3 h",26%
same,Pt195 in HMWF (albumin-bound),"albumin (mouse serum); pH 7.4, 1 h intervals, 4 h",74%
same,Pt195 in LMWF,"albumin (mouse serum); pH 7.4, 1 h intervals, 4 h",26%
same,Pt195 in HMWF (albumin-bound),"albumin (mouse serum); pH 7.4, 1 h intervals, 24 h",75%
same,Pt195 in LMWF,"albumin (mouse serum); pH 7.4, 1 h intervals, 24 h",25%
same,Platinum in the HMWF (protein-bound),apotransferrin,less than 10%
same,Platinum in the HMWF (protein-bound),albumin,75%
same,Platinum in the HMWF (protein-bound),α1-antitrypsin,~30%
same,Oxaliplatin detected (released) after 25 h,[3],18%
"CC(=O)[O][Pt-2]12([O]C(=O)NCCOCCOCCOCCOC(=O)C3=CCCCC3S(=O)(=O)Nc3ccc(F)cc3F)([NH2+]C3CCCCC3[NH2+]1)[O]C(=O)C(=O)[O]2 (mixture of isomers) [DFSA-Ox-OAc, (OC-6–34)-Acetato[(1R,2R)-1,2-cyclohexane-1,2-diamino][(1-(6-(N-(2,4-difluorophenyl)-sulfamoyl)-cyclohex-1-en-1-yl)-1-oxo-2,5,8,11-tetraoxatridecan-13-yl)-carbamato]-oxalato platinum(IV)]",Cmax,[1],4.61 mg/kg
same,Percentage of AUCPt_0-∞ extrapolated from tlast to infinity,[1],45.6%
same,Half-life,[1],21.9 h
same,CL,[1],0.0685 kg/h/kg
same,Vz,[1],2.17 kg/kg
same,Platinum in the HMWF (protein-bound),IgG,< 5%
same,Intact compound after 25 h,"[2]; 20 mM HEPES, pH 7.4, 20 °C",stable
same,Intact compound after 25 h,"[2]; 20 mM MOPS, pH 7.4, 20 °C",stable
same,Intact compound after 25 h,"[2]; 100 mM PB, pH 5.5, 20 °C",stable
same,Intact compound after 25 h,"[2]; 100 mM PB, pH 6.5, 20 °C",stable
same,Intact compound after 25 h,"[2]; 100 mM PB, pH 7.4, 20 °C",97%
same,Hydrolytic stability in all tested conditions,"[2]; PB pH 5.5, 6.5, 7.4, HEPES and MOPS pH 7.4, 20 °C, 25 h",stable
same,Pt195 in HMWF (albumin-bound),albumin (mouse serum); [4],2%
same,Pt195 in LMWF,albumin (mouse serum); [4],98%
same,Pt195 in HMWF (albumin-bound),albumin (mouse serum); [5],18%
same,Pt195 in LMWF,albumin (mouse serum); [5],82%
same,Pt195 in HMWF (albumin-bound),albumin (mouse serum); [6],32%
same,Pt195 in LMWF,albumin (mouse serum); [6],68%
same,Pt195 in HMWF (albumin-bound),albumin (mouse serum); [7],43%
same,Pt195 in LMWF,albumin (mouse serum); [7],57%
same,Pt195 in HMWF (albumin-bound),albumin (mouse serum); [8],52%
same,Pt195 in LMWF,albumin (mouse serum); [8],48%
same,Pt195 in HMWF (albumin-bound),albumin (mouse serum); [9],58%
same,Pt195 in LMWF,albumin (mouse serum); [9],42%
same,Pt195 in HMWF (albumin-bound),albumin (mouse serum); [10],63%
same,Pt195 in LMWF,albumin (mouse serum); [10],37%
same,Pt195 in LMWF,"albumin (mouse serum); pH 7.4, 1 h intervals, 0 h",99%
same,Pt195 in HMWF (albumin-bound),"albumin (mouse serum); pH 7.4, 1 h intervals, 1 h",65%
same,Pt195 in LMWF,"albumin (mouse serum); pH 7.4, 1 h intervals, 1 h",35%
same,Pt195 in HMWF (albumin-bound),"albumin (mouse serum); pH 7.4, 1 h intervals, 2 h",78% and ~80%
same,Pt195 in LMWF,"albumin (mouse serum); pH 7.4, 1 h intervals, 2 h",22%
same,Pt195 in HMWF (albumin-bound),"albumin (mouse serum); pH 7.4, 1 h intervals, 3 h",82%
same,Pt195 in LMWF,"albumin (mouse serum); pH 7.4, 1 h intervals, 3 h",18%
same,Pt195 in HMWF (albumin-bound),"albumin (mouse serum); pH 7.4, 1 h intervals, 4 h",82%
same,Pt195 in LMWF,"albumin (mouse serum); pH 7.4, 1 h intervals, 4 h",18%
same,Pt195 in HMWF (albumin-bound),"albumin (mouse serum); pH 7.4, 1 h intervals, 24 h",70%
same,Pt195 in LMWF,"albumin (mouse serum); pH 7.4, 1 h intervals, 24 h",30%
same,Maximum albumin binding,albumin (mouse serum); reached after several hours,82%
same,Platinum in the HMWF (protein-bound),apotransferrin,< 5%
same,Platinum in the HMWF (protein-bound),albumin,26%
same,Platinum in the HMWF (protein-bound),α1-antitrypsin,20%
same,Oxaliplatin detected (released) after 25 h,[3],10%
